PubChem BioAssay (NCI)
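48-hour exposure; five concentrations; linearly interpolated endpoints. GI50 is the concentration that inhibits growth by half. TGI denotes the concentration required for complete inhibition of growth.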

How the values were obtained:
Experiment in all cases: inhibition of tumour cell growth, NCI panel, 48 h
786-0 renal = system: 786-0 renal
ACHN renal = system: ACHN renal
HOP-62 NSCLC = system: HOP-62 NSCLC
MALME-3M melanoma = system: MALME-3M melanoma
OVCAR-5 ovarian = system: OVCAR-5 ovarian
SK-MEL-2 melanoma = system: SK-MEL-2 melanoma
SN12C renal = system: SN12C renal
UACC-257 melanoma = system: UACC-257 melanoma
UACC-62 melanoma = system: UACC-62 melanoma

| Structure (SMILES) | TGI (786-0 renal) [µM] | TGI (ACHN renal) [µM] | TGI (HOP-62 NSCLC) [µM] | TGI (MALME-3M melanoma) [µM] | TGI (OVCAR-5 ovarian) [µM] | TGI (SK-MEL-2 melanoma) [µM] | TGI (SN12C renal) [µM] | TGI (UACC-257 melanoma) [µM] | TGI (UACC-62 melanoma) [µM] | GI50 (786-0 renal) [µM] | GI50 (ACHN renal) [µM] | GI50 (HOP-62 NSCLC) [µM] | GI50 (MALME-3M melanoma) [µM] | GI50 (OVCAR-5 ovarian) [µM] | GI50 (SK-MEL-2 melanoma) [µM] | GI50 (SN12C renal) [µM] | GI50 (UACC-257 melanoma) [µM] | GI50 (UACC-62 melanoma) [µM] |
| --- | --- | --- | --- | --- | --- | --- | --- | --- | --- | --- | --- | --- | --- | --- | --- | --- | --- | --- |
| COc1cc(C(=O)CBr)c(OC)cc1C | > 100 | > 100 | > 100 | > 100 | > 100 | > 100 | > 100 | > 100 | > 100 |  |  |  |  |  |  |  |  |  |
| O=C1c2cccc([N+](=O)[O-])c2C(=O)N1c1ncn[nH]1 | > 100 | > 100 | > 100 | > 100 | > 100 | > 100 | > 100 | > 100 | > 100 |  |  |  |  |  |  |  |  |  |
| O=C(O)/C=C(\c1nc2ccc([N+](=O)[O-])cc2[nH]1)c1cc(Cl)ccc1O | 28.3 | 10.6 | 28.3 | 7.52 | 43.3 | 7.59 | 33.8 | 7.15 | 5.41 | 3.77 | 2.38 | 3.55 | 1.96 | 5.29 | 2.4 | 2.71 | 2.37 | 1.45 |
| CC1CN1C(=O)NCCCCCCNC(=O)N1CC1C (configuration not stated) | > 100 | > 100 | > 100 | > 100 | > 100 | > 100 | > 100 | > 100 | > 100 |  |  |  |  |  |  |  |  |  |
| CCC[CH2][Sn]1([CH2]CCC)[O]C(=O)CN=Cc2c(ccc3ccccc23)[O]1 | 1.81 | 1.05 | > 100 | 0.464 | 3.35 | 0.687 | 1.39 | 0.285 | 0.558 | 0.487 | 0.319 | 3.91 | 0.134 | 1.93 | 0.251 | 0.374 | 0.0434 | 0.229 |
| CS(=O)(=O)CCNCc1ccc(-c2ccc3ncnc(Nc4ccc(OCc5ccccc5)cc4)c3c2)o1 | 8.73 | > 25 | > 25 | 11.1 | > 25 | 10.7 | > 25 | 8.56 | 8.98 | 4.35 | 1.28 | 9.66 | 4.99 | 6.51 | 5.5 | 5.87 | 4.38 | 4.68 |
| Nc1nc2c(nnn2C2CC(O)C(CO)O2)c(=O)[nH]1 (configuration not stated) | > 100 | > 22.7 | > 93.9 | > 100 | > 100 | > 100 | > 100 | > 100 | 36.2 | 2.99 | 1 | 7.91 | 5.53 | 26.2 | 20.2 | 5.44 | > 48.9 | 3.48 |
| COc1ccc(-c2nc(-c3nc4ccc(Cl)cc4[nH]3)c3ccccn23)cc1 | 3.22 | 3.75 | 3.76 | 5.57 | 29.3 | 8.76 | 17.8 | 8.5 | 20.9 | 1.6 | 1.86 | 1.96 | 2.35 | 7.32 | 2.71 | 3.75 | 2.63 | 4.89 |
| CCN(CC)C(c1ccc(N(C)C)cc1)C(c1ccc(N(C)C)cc1)N(CC)CC (configuration not stated) | > 73 | > 73 | > 73 | 50.3 | > 73 | > 73 | > 73 | > 73 | > 73 |  |  |  |  |  |  |  |  |  |
| CCOC(=O)/C(C#N)=C/c1[nH]c(C(=O)OCc2ccccc2)c(C)c1C | > 100 | > 100 | > 100 | > 100 | > 100 | > 100 | > 100 | > 100 | > 100 |  |  |  |  |  |  |  |  |  |
| NC(=O)NS(=O)(=O)c1ccc(N2N=C(C(F)(F)F)CC2c2cc(C(F)(F)F)cc(C(F)(F)F)c2)cc1 (configuration not stated) | 22.7 | 14.9 | 22.4 | 39.9 | 29.8 | 9.5 | 4.51 | 7.18 | 22.7 | 7.14 | 3.95 | 6.53 | 13.9 | 13.7 | 1.2 | 2.1 | 2.58 | 10.4 |
| O=C(O)C(=Cc1ccc(-c2ccccc2)cc1)C(=O)O | 41.4 | 60.1 | 22.5 | 39.7 | > 55.6 | 16.6 | 35.1 | 25 | 26.1 |  |  |  |  |  |  |  |  |  |
